Each structure is given as a SMILES string.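 Test compounds were applied to cells in 96-well plates for 48 hours at 5 doses. GI50 is the concentration that inhibits growth by half. TGI: total growth inhibition.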

In the first assay the test system is ACHN renal. In words: NCI-60 cell line screen, 48 h.
Molecule `Cn1c(=O)c2[nH]c(CCNC(=O)c3ccccc3)nc2n(C)c1=O` yielded a TGI above 100 µM.

Turning to `Cc1cc(S(=O)(=O)Nc2nc3ccccc3nc2-c2cccc([N+](=O)[O-])c2)c(S)cc1Cl`, the TGI came out at 64.3 µM.

With `O=c1ssc(=Nc2ccccc2)n1-c1ccccc1`, the TGI was determined as 31.1 µM.

`NCCSS(=O)(=O)CCN`: the TGI is above 100 µM.

Turning to `OCCNCCN1CCN(CCCN2c3ccccc3Sc3ccc(C(F)(F)F)cc32)CC1`, the TGI is 43.2 µM.

On to `O=C(O)c1cc2c(ncc3c(=O)n(-c4ccccc4)[nH]c32)s1`, for which the TGI was above 100 µM.

For the molecule `CCCc1c(-c2ccccc2)[nH]c2ccccc2c1=O`, the TGI was above 100 µM.

Regarding `Cc1ccc(C2OC(COCc3ccc(Cl)cc3)C(OCc3ccc(Cl)cc3)C2O)cc1` (configuration not stated), the TGI is 41.8 µM.

`C[N+](C)(C)CCc1ccccc1` gave a TGI above 100 µM.

`COc1c(Br)cc2c(c1OC)C(Br)CCC(Br)(Br)C2=O` (configuration not stated) came in with a TGI of 5.21 µM.

`O=C1C=CC2(C=C1)O[C@H](Cc1ccccc1)[C@@H](Cc1ccccc1)O2` yielded a TGI of 0.958 µM.

Regarding `O=C(Nc1nc2ccc([N+](=O)[O-])cc2s1)C(=O)C(C(=O)c1ccccc1F)C1OC(=O)c2ccccc21` (configuration not stated), the TGI is above 100 µM.

`COc1nc(=O)n(COC(CO)CN2C(=O)c3ccccc3C2=O)cc1Cc1cccc(OCc2ccccc2)c1` (configuration not stated) registered a TGI of 59.8 µM.

A further assay concerns COLO 205 colon. In words: NCI-60 cell line screen, 48 h.
`N#C[C@H](OC1OC(COC2OC(CO)C(O)C(O)C2O)C(O)C(O)C1O)c1ccccc1` (some centres not stated): the TGI is above 250 µM.

For the molecule `CCN(CC)c1ccc2cc(C(=O)Nc3ccc4[nH]c(C(=O)N5C[C@@H](CCl)c6c5cc(OC(=O)Nc5ccccc5)c5[nH]cc(C)c65)cc4c3)oc2c1`, the GI50 was above 1000 µM and the TGI is above 1000 µM.

With `Cc1cc(S(=O)(=O)Nc2nc3ccccc3nc2-c2cccc([N+](=O)[O-])c2)c(S)cc1Cl`, the TGI is 31.5 µM.

On to `O=c1ssc(=Nc2ccccc2)n1-c1ccccc1`, for which the TGI was 66.4 µM.

`NCCSS(=O)(=O)CCN` returned a TGI above 100 µM.

`CC(=O)Oc1cc2c(cc1OC(C)=O)OCC(c1ccccc1)C2` (configuration not stated) gave a TGI of 47 µM.

`OCCNCCN1CCN(CCCN2c3ccccc3Sc3ccc(C(F)(F)F)cc32)CC1` had a TGI of 32.4 µM.

Molecule `O=C(O)c1cc2c(ncc3c(=O)n(-c4ccccc4)[nH]c32)s1` yielded a TGI above 100 µM.

For `O=C(CCl)NNC1=Nc2ccc(Cl)cc2SC1`, the TGI was determined as 3.47 µM.

As for `CCCc1c(-c2ccccc2)[nH]c2ccccc2c1=O`, the TGI is above 100 µM.

`Cc1ccc(C2OC(COCc3ccc(Cl)cc3)C(OCc3ccc(Cl)cc3)C2O)cc1` (configuration not stated) had a TGI above 100 µM.

Consider `CO/N=C(/C)c1ccc(NC(=O)CSc2nnc(-c3ccncc3)n2-c2ccccc2)cc1`, for which the GI50 was above 100 µM and the TGI was above 100 µM.

Molecule `C[N+](C)(C)CCc1ccccc1` came in with a TGI above 100 µM.

As to `COc1c(Br)cc2c(c1OC)C(Br)CCC(Br)(Br)C2=O` (configuration not stated), the TGI turned out to be 4.1 µM.

Regarding `O=C1C=CC2(C=C1)O[C@H](Cc1ccccc1)[C@@H](Cc1ccccc1)O2`, the TGI stood at 2.99 µM.

As to `CCCNC(=O)C(C)C1CCC2(C)C=CC(=O)C(C)=C2C1O` (configuration not stated), the TGI was above 100 µM.

Turning to `O=C(Nc1nc2ccc([N+](=O)[O-])cc2s1)C(=O)C(C(=O)c1ccccc1F)C1OC(=O)c2ccccc21` (configuration not stated), the TGI was 62.4 µM.

`Nc1ccn(C2C=C(CO)C(O)C2O)c(=O)c1` (configuration not stated) showed a TGI above 625 µM.

On to `COc1nc(=O)n(COC(CO)CN2C(=O)c3ccccc3C2=O)cc1Cc1cccc(OCc2ccccc2)c1` (configuration not stated), for which the TGI stood at 37.4 µM.

A further assay has as its system EKVX NSCLC. In words: NCI-60 cell line screen, 48 h.
Consider `N#C[C@H](OC1OC(COC2OC(CO)C(O)C(O)C2O)C(O)C(O)C1O)c1ccccc1` (some centres not stated), for which the TGI is above 250 µM.

Regarding `CCN(CC)c1ccc2cc(C(=O)Nc3ccc4[nH]c(C(=O)N5C[C@@H](CCl)c6c5cc(OC(=O)Nc5ccccc5)c5[nH]cc(C)c65)cc4c3)oc2c1`, the GI50 was 448 µM.

The molecule `Cn1c(=O)c2[nH]c(CCNC(=O)c3ccccc3)nc2n(C)c1=O` had a TGI above 100 µM.

For `Cc1cc(S(=O)(=O)Nc2nc3ccccc3nc2-c2cccc([N+](=O)[O-])c2)c(S)cc1Cl`, the TGI worked out at 54.4 µM.

Turning to `O=c1ssc(=Nc2ccccc2)n1-c1ccccc1`, the TGI was above 100 µM.

In turn, `NCCSS(=O)(=O)CCN` came in with a TGI above 100 µM.

In the case of `CC(=O)Oc1cc2c(cc1OC(C)=O)OCC(c1ccccc1)C2` (configuration not stated), the TGI turned out to be 57.8 µM.

`OCCNCCN1CCN(CCCN2c3ccccc3Sc3ccc(C(F)(F)F)cc32)CC1` showed a TGI of 52.3 µM.

In the case of `O=C(O)c1cc2c(ncc3c(=O)n(-c4ccccc4)[nH]c32)s1`, the TGI is above 100 µM.

Regarding `O=C(CCl)NNC1=Nc2ccc(Cl)cc2SC1`, the TGI was 4.08 µM.

Molecule `CCCc1c(-c2ccccc2)[nH]c2ccccc2c1=O` yielded a TGI above 100 µM.

The molecule `Cc1ccc(C2OC(COCc3ccc(Cl)cc3)C(OCc3ccc(Cl)cc3)C2O)cc1` (configuration not stated) yielded a TGI of 40 µM.

Molecule `C[N+](C)(C)CCc1ccccc1` gave a TGI above 100 µM.

For `COc1c(Br)cc2c(c1OC)C(Br)CCC(Br)(Br)C2=O` (configuration not stated), the TGI was found to be 14.6 µM.

In turn, `O=C1C=CC2(C=C1)O[C@H](Cc1ccccc1)[C@@H](Cc1ccccc1)O2` showed a TGI of 1.76 µM.

Molecule `CCCNC(=O)C(C)C1CCC2(C)C=CC(=O)C(C)=C2C1O` (configuration not stated) registered a TGI above 100 µM.

As to `O=C(Nc1nc2ccc([N+](=O)[O-])cc2s1)C(=O)C(C(=O)c1ccccc1F)C1OC(=O)c2ccccc21` (configuration not stated), the TGI was 73.4 µM.

`COc1nc(=O)n(COC(CO)CN2C(=O)c3ccccc3C2=O)cc1Cc1cccc(OCc2ccccc2)c1` (configuration not stated) yielded a TGI above 100 µM.

A further assay has as its system HCC-2998 colon. In words: NCI-60 cell line screen, 48 h.
Regarding `N#C[C@H](OC1OC(COC2OC(CO)C(O)C(O)C2O)C(O)C(O)C1O)c1ccccc1` (some centres not stated), the TGI was above 250 µM.

As for `CCN(CC)c1ccc2cc(C(=O)Nc3ccc4[nH]c(C(=O)N5C[C@@H](CCl)c6c5cc(OC(=O)Nc5ccccc5)c5[nH]cc(C)c65)cc4c3)oc2c1`, the TGI was above 1000 µM.

`Cn1c(=O)c2[nH]c(CCNC(=O)c3ccccc3)nc2n(C)c1=O` came in with a TGI above 100 µM.

`Cc1cc(S(=O)(=O)Nc2nc3ccccc3nc2-c2cccc([N+](=O)[O-])c2)c(S)cc1Cl` gave a TGI of 39.1 µM.

Regarding `O=c1ssc(=Nc2ccccc2)n1-c1ccccc1`, the TGI is above 100 µM.

`NCCSS(=O)(=O)CCN` had a TGI above 100 µM.

In turn, `CC(=O)Oc1cc2c(cc1OC(C)=O)OCC(c1ccccc1)C2` (configuration not stated) showed a TGI of 65.5 µM.

In turn, `OCCNCCN1CCN(CCCN2c3ccccc3Sc3ccc(C(F)(F)F)cc32)CC1` had a TGI of 44.7 µM.

`O=C(O)c1cc2c(ncc3c(=O)n(-c4ccccc4)[nH]c32)s1`: the TGI was above 100 µM.

`O=C(CCl)NNC1=Nc2ccc(Cl)cc2SC1` showed a TGI of 9.97 µM.

`CCCc1c(-c2ccccc2)[nH]c2ccccc2c1=O` registered a TGI of 65.4 µM.

Molecule `Cc1ccc(C2OC(COCc3ccc(Cl)cc3)C(OCc3ccc(Cl)cc3)C2O)cc1` (configuration not stated) showed a TGI of 72.7 µM.

For the molecule `CO/N=C(/C)c1ccc(NC(=O)CSc2nnc(-c3ccncc3)n2-c2ccccc2)cc1`, the GI50 was above 100 µM and the TGI was above 100 µM.

`C[N+](C)(C)CCc1ccccc1` displayed a TGI above 100 µM.

`COc1c(Br)cc2c(c1OC)C(Br)CCC(Br)(Br)C2=O` (configuration not stated) showed a TGI of 16.6 µM.

Regarding `O=C1C=CC2(C=C1)O[C@H](Cc1ccccc1)[C@@H](Cc1ccccc1)O2`, the TGI amounted to 11.1 µM.

Consider `CCCNC(=O)C(C)C1CCC2(C)C=CC(=O)C(C)=C2C1O` (configuration not stated), for which the TGI is above 100 µM.

Turning to `O=C(Nc1nc2ccc([N+](=O)[O-])cc2s1)C(=O)C(C(=O)c1ccccc1F)C1OC(=O)c2ccccc21` (configuration not stated), the TGI worked out at 84.2 µM.

Regarding `Nc1ccn(C2C=C(CO)C(O)C2O)c(=O)c1` (configuration not stated), the TGI was above 625 µM.

Take `COc1nc(=O)n(COC(CO)CN2C(=O)c3ccccc3C2=O)cc1Cc1cccc(OCc2ccccc2)c1` (configuration not stated): the TGI amounted to 43 µM.

The test system of another assay is M14 melanoma. In words: NCI-60 cell line screen, 48 h.
`Cn1c(=O)c2[nH]c(CCNC(=O)c3ccccc3)nc2n(C)c1=O` registered a TGI above 100 µM.

In turn, `Cc1cc(S(=O)(=O)Nc2nc3ccccc3nc2-c2cccc([N+](=O)[O-])c2)c(S)cc1Cl` registered a TGI of 35.1 µM.

With `O=c1ssc(=Nc2ccccc2)n1-c1ccccc1`, the TGI was found to be 48.3 µM.

Take `NCCSS(=O)(=O)CCN`: the TGI is above 100 µM.

`OCCNCCN1CCN(CCCN2c3ccccc3Sc3ccc(C(F)(F)F)cc32)CC1` came in with a TGI of 30.2 µM.

For `O=C(O)c1cc2c(ncc3c(=O)n(-c4ccccc4)[nH]c32)s1`, the TGI was above 100 µM.

Molecule `CCCc1c(-c2ccccc2)[nH]c2ccccc2c1=O` came in with a TGI above 100 µM.

On to `CO/N=C(/C)c1ccc(NC(=O)CSc2nnc(-c3ccncc3)n2-c2ccccc2)cc1`, for which the GI50 was above 100 µM and the TGI is above 100 µM.

In turn, `C[N+](C)(C)CCc1ccccc1` yielded a TGI above 100 µM.

Take `COc1c(Br)cc2c(c1OC)C(Br)CCC(Br)(Br)C2=O` (configuration not stated): the TGI is 0.539 µM.

The molecule `O=C1C=CC2(C=C1)O[C@H](Cc1ccccc1)[C@@H](Cc1ccccc1)O2` registered a TGI of 2.15 µM.

Turning to `O=C(Nc1nc2ccc([N+](=O)[O-])cc2s1)C(=O)C(C(=O)c1ccccc1F)C1OC(=O)c2ccccc21` (configuration not stated), the TGI is above 100 µM.

For the molecule `COc1nc(=O)n(COC(CO)CN2C(=O)c3ccccc3C2=O)cc1Cc1cccc(OCc2ccccc2)c1` (configuration not stated), the TGI is 43.6 µM.

The subject of another assay is MCF7 breast. In words: NCI-60 cell line screen, 48 h.
In turn, `N#C[C@H](OC1OC(COC2OC(CO)C(O)C(O)C2O)C(O)C(O)C1O)c1ccccc1` (some centres not stated) registered a TGI above 250 µM.

Take `CCN(CC)c1ccc2cc(C(=O)Nc3ccc4[nH]c(C(=O)N5C[C@@H](CCl)c6c5cc(OC(=O)Nc5ccccc5)c5[nH]cc(C)c65)cc4c3)oc2c1`: the GI50 is 68.8 µM and the TGI was above 1000 µM.

Molecule `Cc1cc(S(=O)(=O)Nc2nc3ccccc3nc2-c2cccc([N+](=O)[O-])c2)c(S)cc1Cl` came in with a TGI of 64.5 µM.

Regarding `O=c1ssc(=Nc2ccccc2)n1-c1ccccc1`, the TGI stood at 35.7 µM.

In turn, `NCCSS(=O)(=O)CCN` yielded a TGI above 100 µM.

In the case of `CC(=O)Oc1cc2c(cc1OC(C)=O)OCC(c1ccccc1)C2` (configuration not stated), the TGI stood at 66.8 µM.

Molecule `OCCNCCN1CCN(CCCN2c3ccccc3Sc3ccc(C(F)(F)F)cc32)CC1` showed a TGI of 39.8 µM.

Turning to `O=C(CCl)NNC1=Nc2ccc(Cl)cc2SC1`, the TGI was 7.62 µM.

For `CCCc1c(-c2ccccc2)[nH]c2ccccc2c1=O`, the TGI is above 100 µM.
